For assay [1], the system named is E. coli DH5αZ1 expressing Tet50. The assay is described as follows: Minimum inhibitory concentration, Tet50-expressing strain. Type of assay: cell-based. Particulars: 20 h; for MIC: Escherichia coli; for MIC, Tet50, +TC: presence of 8 μg/mL TC, 37 °C. The method, then:
(§1) The panels were stored at −80 °C before use. Single colonies of E. coli DH5αZ1 containing TetX7, Tet50, or empty vector in pZE24 expression system were grown in MH-II broth with KAN50 and growth for overnight at 37 °C. On the day of the experiment, MIC panels were thawed at room temperature. […] The panels were incubated at 37 °C for 20 h, then scored by visual inspection. […] Each test was performed in triplicate, with no-antibiotic and no-cell control wells.
(§2) Minimum inhibitory concentrations (MICs) were determined using the broth microdilution method according to CLSI guidelines. Visual inspection of bacterial growth and measurement of the OD600 were used to determine the lowest concentration at which bacterial growth was inhibited.

The test system of assay [2] is E. coli DH5αZ1 expressing TetX7. The assay is described as follows: Minimum inhibitory concentration, TetX7-expressing strain. Type of assay: cell-based. Particulars: Escherichia coli, 20 h. The method, then:
as §1, §2

The target in assay [3] is T1, Tet50 (Unknown prokaryotic organism, UniProt A0A059WYP6).
T1 construct: made in house; host or cells: E. coli BL21-Star (DE3)
As to the kind of experiment: In vitro inhibition of TC oxidation by Tet50 (A400), variable preincubation, dark or blue light. Format: biochemical. Particulars: role: inhibitor, 100 μM TC, 500 μM NADPH. As for the experimental part:
PHBH activity was determined similarly using para-hydroxybenzoic acids as substrate and monitoring for NADPH consumption via A340. […] Reaction samples were prepared in a Costar 96-well flat bottom clear, polystyrene plate and incubated under dark or a 700 lm blue LED bulb held at a distance of 20 cm for various durations. Incubation times were 0, 30, 60, 120, and 240 min under dark or 0, 1, 2, 4, and 8 min under blue light. […] Initial enzyme velocities were determined by linear regression over the linear range of the reaction (typically between 0 and 1 min). […] The velocities were plotted against the logarithm of inhibitor concentration, and apparent IC50 plots were analyzed using GraphPad prism 10 software. […] All apparent IC50 values were plotted against the duration of incubation time and fitted to an exponential decay function. All data points were shown as means and error bars represented standard deviation at least two independent experiments.
TetX7 and TetX6 as model Type 1 enzymes and Tet50 as a model Type 2 enzyme were used.
A hallmark of covalent enzyme inhibition was time dependence given that longer exposure of the enzyme to the inhibitor allowed for more inactivating turnovers. […] The apparent IC50 values were determined for each preincubation time point by monitoring the TDase velocity at A400 under various inhibitor concentrations. The apparent IC50 values were plotted against the preincubation times to determine if the TDase inhibition was time-dependent (FIG. 6).

The mark [4] stands for this setting: dark, 30 min preincubation of inhibitor with enzyme prior to initiating assay, read-out: Apparent IC50 values, Tet50.
[5] abbreviates: read-out: Apparent IC50 value over 7 min blue light, blue light, 7 min.

Structures are written as SMILES. In brackets after ≈: the same amount, converted by molar mass. Where a name gives a salt, the structure may show the parent alone. Read-outs that look alike come from different tables or passages of the source.

T1 sequence (A0A059WYP6 whole entry): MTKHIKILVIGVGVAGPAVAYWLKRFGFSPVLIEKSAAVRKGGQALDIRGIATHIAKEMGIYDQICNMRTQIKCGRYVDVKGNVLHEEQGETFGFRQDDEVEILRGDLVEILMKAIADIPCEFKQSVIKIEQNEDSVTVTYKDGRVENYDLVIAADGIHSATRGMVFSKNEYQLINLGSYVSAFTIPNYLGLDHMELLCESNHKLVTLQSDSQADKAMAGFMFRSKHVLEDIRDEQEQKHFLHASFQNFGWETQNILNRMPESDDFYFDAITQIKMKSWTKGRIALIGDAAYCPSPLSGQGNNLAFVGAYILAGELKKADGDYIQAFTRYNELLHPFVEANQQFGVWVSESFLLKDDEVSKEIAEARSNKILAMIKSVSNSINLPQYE

For orientation: MIC means the smallest concentration in the dilution series that meets the test's criterion for growth inhibition. For `Cc1c2c(c(O)c3c(O)c(CNC4(C)CC4)ccc13)C(=O)C1(O)C(=O)C(C(N)=O)=C(O)C(N(C)C)C1C2` [Compound 103, (4S,4aS,12aS)-4-(Dimethylamino)-3,10,11,12a-tetrahy-droxy-6-methyl-9-(((1-methylcyclopropyl)amino)methyl)-1,12-dioxo-1,4,4a,5,12,12a-hexahydrotetracene-2-carboxamide Hydrochloride], the MIC in assay [1] (read-out: MIC, Tet50, −TC) worked out at 64 µg/mL; in assay [2] (read-out: MIC, TetX7, −TC) it was 64 µg/mL. Besides, the “MIC, Tet50, +TC” value in assay [1] worked out at 16 µg/mL.
The term IC50 denotes the midpoint of a concentration-inhibition curve. For `C#CCNCc1ccc2c(C)c3c(c(O)c2c1O)C(=O)[C@]1(O)C(=O)C(C(N)=O)=C(O)[C@@H](N(C)C)[C@@H]1C3.Cl` [Compound 104, (4S,4aS,12aS)-4-(Dimethylamino)-3,10,11,12a-tetrahydroxy-6-methyl-1,12-dioxo-9-((prop-2-yn-1-ylamino)-methyl)-1,4,4a,5,12,12a-hexahydrotetracene-2-carboxamide Hydrochloride], in assay [1], the “MIC, Tet50, +TC” value came to 8 µg/mL. The IC50 in assay [3] (setting [4]) amounted to 600 ± 40 µM.
With `C#CCN(C)Cc1ccc2c(C)c3c(c(O)c2c1O)C(=O)[C@]1(O)C(=O)C(C(N)=O)=C(O)[C@@H](N(C)C)[C@@H]1C3` [Compound 105], the MIC in assay [1] (read-out: MIC, Tet50, −TC) turned out to be 32 µg/mL (≈ 63 µM). Besides, the “MIC, Tet50, +TC” value in assay [1] amounted to 16 µg/mL. Also, the IC50 in assay [3] (setting [5]) is 107 ± 6 µM; in assay [3] (setting [4]), 470 ± 60 µM.
On to `Cc1c2c(c(O)c3c(O)cccc13)C(=O)[C@]1(O)C(=O)C(C(N)=O)=C(O)[C@@H](N(C)C)[C@@H]1C2` [Compound 106, Anhydrotetracycline, reference compound], for which the IC50 in assay [3] (setting [5]) turned out to be 70 ± 10 µM; in assay [3] (blue light, start of course, read-out: Apparent IC50 value at start of blue light course) it was 500 ± 60 µM; in assay [3] (dark, 240 min preincubation, read-out: Apparent IC50 value over 240 min preincubation) it was 340 ± 40 µM.
As for `CN(C)[C@@H]1C(O)=C(C(N)=O)C(=O)[C@@]2(O)C(O)=C3C(=O)c4c(O)cccc4[C@@](C)(O)[C@H]3C[C@@H]12` [TC, tetracycline, reference compound], the minimal inhibitory concentration (MIC) in assay [1] (read-out: MIC of TC against Tet50::pZE24) and in assay [2] (read-out: MIC of TC against TetX7::pZE24) was 16 µg/mL throughout.

(Values after US20260345640A1 (priority 2025, published 2026).)
